“Also recorded” adds a separate entry of the source. No end group written: not given here.
How the values were obtained:
Format in all cases: cell-based
[1] = system: HT29 human colorectal adenocarcinoma cells; assay: MTT cell proliferation assay, serum-containing
Protocol: (§1) HT29 (colorectal adenocarcinoma) (ATCC HTB-38; Manassas, Va.). SW480 colon carcinoma cells (ATCC) and MKN45 gastric carcinoma cells (Cancer Research Laboratory, University of New South Wales, Sydney, Australia) were maintained in DMEM (Invitrogen, Carlsbad, Calif.) containing 10% heat inactivated, filtered, fetal bovine serum (FBS; Invitrogen) and 20 mM HEPES buffer. Cell culture was carried out in an incubator set at 37° C. in 5% CO2 in air. Cells were grown to approximately 80% confluence in tissue culture flasks before being recovered from the substrate by trypsinisation. Briefly, resident culture media was removed and cells washed twice with sterile phosphate-buffered saline solution. A volume of 10× trypsin in EDTA (to provide 0.5% trypsin w/w) was added in sufficient quantity to cover the cells. When cells had sufficiently detached from the substrate, trypsin activity was stopped by the addition of 10% FBS in DMEM. Detached cells were transferred to a conical sterile tube and the suspended cells passaged ten times up and down through a 10 ml pipette to produce a single cell suspension suitable for counting. The number of viable cells was determined using a viability stain (Trypan blue) and counting using a haemocytometer.
(§2) The MTT cell proliferation assay measures cell proliferation rate and, in instances where cell viability is compromised, the assay indicates a comparative reduction in cell viability.
(§3) Single cell suspensions of viable trypsinised cells were seeded into 96-well tissue culture plates at a density of 2×10^3 cells per well in a volume of 100 ul of culture media with or without serum. A set of triplicate wells was prepared for each concentration of compound being tested. […]
(§4) Appropriate concentrations of compound were prepared by dilution of freshly prepared sterile 1 mM stock solutions in normal saline into cell culture media to give a final culture-well volume of 200 ul. […] Plates were gently vortexed to complete solubilisation of crystalline material and absorbance read at 540 nm using a microplate reader. […]

[2] = system: HT29 human colorectal adenocarcinoma cells; assay: MTT cell proliferation assay, serum-free; conditions: absence of serum, 72 hour MTT assay, FIG. 5c
Protocol: as §1, §2, §3, §4

[3] = system: SW480 human colon carcinoma cells; assay: MTT cell proliferation assay, serum-containing; conditions: presence of serum, 48 hour MTT assay, FIG. 6
Protocol: as §1, with “Detached cells were transferred to a conical sterile tube and the suspended cells passaged ten times up and down through a 10 ml pipette to produce a single cell suspension suitable for counting.” left out, “haemocytometer. […]” for “haemocytometer.”
as §4

[4] = system: MKN45 human gastric carcinoma cells; assay: MTT cell proliferation assay, serum-containing; conditions: presence of serum, 48 hour MTT assay, FIG. 6
Protocol: as §1, with “Detached cells were transferred to a conical sterile tube and the suspended cells passaged ten times up and down through a 10 ml pipette to produce a single cell suspension suitable for counting.” left out, “haemocytometer. […]” for “haemocytometer.”
as §4

Substance: 24-NH2: peptide consisting of amino acids 266-289 of GenBank Accession No. O68604; extended version of peptide 22C, synthesized and amidated (DDVRRRVQQETTGHRGRAKDPLYR-NH2; listed as Brevibacterium linens)
- depression of in vitro cell proliferation of colon cancer cells ([1]; MTT assay (72 hours), serum-containing, concentration of 50 μM, FIG. 5a): up to 36%

Substance: RGRAKDPL [8C]
- inhibition of growth of HT29 colon cancer cells [2]: inhibited the growth

Substance: H-DDVRRRVQQETTGH-COOH (H-DDVRRRVQQETTGH-OH) [14C, 14 mer derivative of 22C containing the TAT-like motif]
- inhibition of growth of HT29 colon cancer cells [2]: inhibited the growth

Substance: DDVRRRVQQETTGHRGRAKDPL (listed as Brevibacterium linens) [22C]
- depression of in vitro cell proliferation of colon cancer cells ([1]; MTT assay containing serum (24 hour assay), concentration of 35 uM, FIG. 5d): up to 54%
- effectiveness compared with other peptides ([1]; serum-supplemented culture media, FIG. 5d and FIG. 5a): more effective than peptide 14C and peptide 8C; also recorded: more effective than the 24-NH2 peptide
- inhibition of growth of HT29 colon cancer cells [2]: inhibited the growth
- inhibition of proliferation of SW480 cells [3]: inhibit proliferation of SW480 and MKN45 cells to a similar degree as for HT29 cells
- inhibition of proliferation of MKN45 cells [4]: inhibit proliferation of SW480 and MKN45 cells to a similar degree as for HT29 cells

Reference: US8653236B2, “Therapeutic agents” (Inter-K Pty Limited, priority 2008, dated 2014)
